Laboratory results as given in patent publication US10717746B2, “Chemical compounds” (ASTRAZENECA AB, priority 2015, dated 2020).

How the values were obtained:
CDK9/CycT1 [1] = biological target: T1, CDK9/CycT1 (Homo sapiens (Human), UniProt P50750); experiment: CDK9 kinase assay, ATP concentration at Km (mobility shift, Caliper LC3000); format: biochemical; conditions: 6 μM ATP, 3 nM CDK9/CycT1; read-out: CDK9 ATP conc. at Km (IC50)
Description: (§1) Activity of CDK9 was determined in-vitro using a mobility shift assay on a Caliper LC3000 reader (Caliper/PerkinElmer), which measures fluorescence of a phosphorylated and unphosphorylated fluorescent peptide substrate and calculates a ratiometric value to determine percent turnover. Phosphorylation of the peptide in the presence and absence of the compound of interest was determined. Enzyme/substrate/adenosine triphosphate (ATP) mix (3 nM CDK9/CycT1, 6 μM ATP, 1.5 μM CDK9 peptide substrate (FITC-X-GSRTPMY-NH2 (X: epsilon aminocaproic acid)), 50 mM HEPES (pH7.2), 1 mM dithiothreitol, 0.01% tween 20, 50 μg/mL bovine serum albumin, (final assay concentration)) (5 μl) was preincubated with 2 μl of compound for 15 minutes at 25° C. Reactions were initiated with 5 μl of 24 mM MgCl2 (10 mM final assay concentration) in buffer (50 mM HEPES (pH7.2), 1 mM dithiothreitol, 0.01% tween 20, 50 μg/mL bovine serum albumin, (final assay concentration) and incubated at 25° C. for 90 minutes and reactions were stopped by addition of 5 μl of Stop mix consisting of 65 mM HEPES (pH7.2), 35.5 mM EDTA, 0.227% Coatin Reagent 3 (Caliper/PerkinElmer), and 0.003% Tween. Phosphorylated and unphosphorylated substrate was detected by a Caliper LC3000 reader (Caliper/PerkinElmer) in the presence of separation buffer consisting of 100 mM HEPES (pH7.2), 15.8 mM EDTA, 0.1% Coatin Reagent 3 (Caliper/PerkinElmer), 0.015% Brij-35, 5% DMSO, and 5.6 mM MgCl2. CDK9 enzyme was acquired from Carna Biosciences (Catalogue number 04-110), the CDK9 peptide substrate was acquired from Intonation (Boston, Mass.; Custom-made).

CDK9/CycT1 [2] = biological target: T1, CDK9/CycT1; experiment: CDK9 kinase assay, high ATP concentration (5 mM ATP); format: biochemical; conditions: 1.5 nM CDK9, read-out: CDK9 High ATP conc. (IC50)
Description: as §1
High ATP assays were run the same way with the following modifications: the final assay concentration of CDK9 was 1.5 nM and the final assay concentration of ATP was 5 mM.

[3] = system: phosphorylation of RNA Polymerase II (RNAPII) at the Ser2 site in MCF7 cells; experiment: MCF7 pSer2 RNAPII MOA assay (immunofluorescence); format: cell-based; conditions: Homo sapiens, MCF7, 6 h, 6-hr treatment, read-out: p-Ser 2 RNAPII (IC50)
Description: MCF7 pSer2 RNAPII MOA Assay
This is an immunofluorescence assay to determine the effect of CDK9 inhibitors on phosphorylation of RNA Polymerase II (RNAPII) at the Ser2 site in the breast cancer cell line, MCF7. On day one, 2500 MCF7 cells/well were seeded in 30 μl of growth media (RPMI+10% FBS+1% L-Glu+P/S) in 384-well black-wall clear-bottom plates, incubate plates overnight at 37° C. incubator. On the second day, the cells were treated with CDK9 inhibitors (7 point dose response ranging from 3 μM to 0.004 μM) using an ECHO liquid handler (Labcyte). After 6-hr treatment at 37° C. incubator, the cells were fixed with 30 µl/well 7.4% paraformaldehyde for 15 min at room temperature; the cells were washed twice with PBS, then permeabilized with 0.3% Triton X/PBS for 5 min at room temperature. After washing cells with PBS, the cells were incubated with 1:2000 diluted Anti-Ser2 Phospho-RNA pol II antibody (Covance MMS-129R) in 3% FBS/0.1% PBST overnight at 4° C. On the next day, the cells were washed twice with 0.1% PBST, then incubated with 1:1000 diluted Alexa Fluor 488 Goat-anti-mouse antibody (Life Technologies A-11001) and 1:4000 diluted DAPI at room temperature in dark. After one hour incubation, the cells were washed twice with 0.1% PBST, and once with PBS. The plates where sealed and read on an Acumen eX3 microplate cytometer (TTP Labtech) to assess phosphorylation level in each well.

MV411 cells = experiment: MV411 caspase activity assay (Caspase-Glo 3/7); format: cell-based; conditions: Homo sapiens, MV4-11, 6 h, 6-hr treatment, caspase 3/7 induction
Description: MV411 Caspase Activity Assay
This is a cell assay to measure the induction of caspase activity in the acute myeloid leukemia cell line, MV411 after 6-hr treatment with CDK9 inhibitors. On the first day, 3000 MV411 cells/well were seeded in 50 μl of growth media (IMDM+10% FBS+2% L-Glu+P/S) in 384-well white plates, incubate plates in 37° C. incubator overnight. […] After 6 hour incubation in 37° C. incubator, 25 μl of Caspase-Glo 3/7 reagent (Promega) per well was added into each well, and plates were incubated at room temperature for 30 min in dark. The plates were read on an Infinite M200 microplate reader (Tecan) with a 100 ms integration time.

T1 sequence (P50750 whole entry): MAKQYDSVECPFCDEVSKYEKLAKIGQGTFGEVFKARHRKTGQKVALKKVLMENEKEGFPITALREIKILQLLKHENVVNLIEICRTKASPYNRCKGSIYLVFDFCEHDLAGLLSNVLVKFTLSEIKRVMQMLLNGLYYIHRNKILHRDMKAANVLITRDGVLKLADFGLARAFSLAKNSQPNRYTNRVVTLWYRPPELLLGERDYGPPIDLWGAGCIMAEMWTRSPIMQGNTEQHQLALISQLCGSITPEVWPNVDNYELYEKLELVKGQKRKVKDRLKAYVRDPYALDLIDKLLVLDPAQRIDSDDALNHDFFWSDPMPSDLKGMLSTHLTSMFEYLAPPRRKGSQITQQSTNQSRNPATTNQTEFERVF
T1 sequence (O60563 whole entry partner): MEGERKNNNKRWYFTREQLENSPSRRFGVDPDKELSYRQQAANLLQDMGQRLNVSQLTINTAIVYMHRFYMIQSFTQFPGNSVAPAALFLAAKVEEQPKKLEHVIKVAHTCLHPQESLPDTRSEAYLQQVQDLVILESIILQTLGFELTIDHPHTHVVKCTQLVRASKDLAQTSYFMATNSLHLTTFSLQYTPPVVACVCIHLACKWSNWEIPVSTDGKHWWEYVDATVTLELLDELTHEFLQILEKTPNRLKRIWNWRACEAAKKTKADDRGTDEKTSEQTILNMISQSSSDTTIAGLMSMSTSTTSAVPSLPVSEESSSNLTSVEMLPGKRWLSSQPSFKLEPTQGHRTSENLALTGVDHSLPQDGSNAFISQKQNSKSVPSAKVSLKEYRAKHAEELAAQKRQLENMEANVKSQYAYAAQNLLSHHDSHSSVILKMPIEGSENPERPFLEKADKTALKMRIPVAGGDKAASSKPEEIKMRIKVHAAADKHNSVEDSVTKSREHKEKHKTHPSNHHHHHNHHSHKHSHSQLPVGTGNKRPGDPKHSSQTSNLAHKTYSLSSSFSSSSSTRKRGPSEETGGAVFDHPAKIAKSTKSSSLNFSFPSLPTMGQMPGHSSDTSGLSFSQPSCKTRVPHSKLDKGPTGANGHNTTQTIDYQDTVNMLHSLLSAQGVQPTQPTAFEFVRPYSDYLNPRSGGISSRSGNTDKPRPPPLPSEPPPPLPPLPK

| SMILES | IC50 (CDK9/CycT1 [1]) | IC50 (CDK9/CycT1 [2]) | IC50 [3] | IC50 (MV411 cells) |
| --- | --- | --- | --- | --- |
| CC(=O)N[C@@H]1CCC[C@H](C(=O)Nc2cc(-c3cnn4c3CC(C)CC4)c(Cl)cn2)C1 (single isomer, unassigned) [Example 64] | < 0.003 µM | 0.007 µM | 0.045 µM | 0.043 µM |
| COC1CCn2ncc(-c3cc(NC(=O)[C@H]4CCC[C@@H](NC(C)=O)C4)ncc3Cl)c2C1 (single isomer, unassigned) [Example 72] | 0.003 µM | 0.111 µM | 0.36 µM | 0.4 µM |
| CC(=O)N[C@@H]1CCC[C@@H](C(=O)Nc2cc(-c3cnn4c3CC(C)(C)C4)c(F)cn2)C1 (single isomer, unassigned) [Example 83] | < 0.003 µM | 0.025 µM | 0.061 µM | 0.073 µM |
| O=C(Nc1cc(-c2cnc3n2CCCC3)c(Cl)cn1)[C@@H]1CCCNC1 [Example 1, (R)—N-(5-chloro-4-(5,6,7,8-tetrahydroimidazo[1,2-a]pyridin-3-yl)pyridin-2-yl)piperidine-3-carboxamide] | 0.0491 µM | 4.5 µM | 1.54 µM | 1.78 µM |
| CC(=O)N[C@@H]1CCC[C@H](C(=O)Nc2cc(-c3cnn4c3CCCC4)ccn2)C1 [Example 3, (1S,3R)-3-acetamido-N-(4-(4,5,6,7-tetrahydropyrazolo[1,5-a]pyridin-3-yl)pyridin-2-yl)cyclohexanecarboxamide] | < 0.003 µM | 0.21 µM | 0.52 µM | 0.44 µM |
| O=C(Nc1cc(-c2cnn3c2CCCC3)c(Cl)cn1)[C@H]1C[C@@H](O)C1 [Example 4, Cis-N-(5-chloro-4-(4,5,6,7-tetrahydropyrazolo[1,5-a]pyridin-3-yl)pyridin-2-yl)-3-hydroxycyclobutanecarboxamide] | 0.003 µM | 0.17 µM | 0.22 µM | 0.28 µM |
| O=C(Nc1cc(-c2cnn3c2CCCC3)c(Cl)cn1)[C@@H]1CCCNC1 [Example 5, (R)—N-(5-chloro-4-(4,5,6,7-tetrahydropyrazolo[1,5-a]pyridin-3-yl)pyridin-2-yl)piperidine-3-carboxamide] | < 0.004 µM | 0.27 µM | 0.26 µM | 0.16 µM |
| O=C(Nc1cc(-c2cnn3c2CCCC3)ccn1)[C@H]1C[C@@H](O)C1 [Example 6, cis-3-hydroxy-N-(4-(4,5,6,7-tetrahydropyrazolo[1,5-a]pyridin-3-yl)pyridin-2-yl)cyclobutanecarboxamide] | 0.008 µM | 0.75 µM | 0.46 µM | 0.63 µM |
| CC(=O)N[C@@H]1CCC[C@H](C(=O)Nc2cc(-c3cnc4n3CCCC4)c(Cl)cn2)C1 [Example 7, (1S,3R)-3-acetamido-N-(5-chloro-4-(5,6,7,8-tetrahydroimidazo[1,2-a]pyridin-3-yl)pyridin-2-yl)cyclohexanecarboxamide] | 0.008 µM | 0.69 µM | 1.45 µM | 1.18 µM |
| CC(=O)N[C@@H]1CCC[C@H](C(=O)Nc2cc(-c3cnn4c3OCCC4)c(Cl)cn2)C1 [Example 8, (1S,3R)-3-acetamido-N-(5-chloro-4-(6,7-dihydro-5H-pyrazolo[5,1-b][1,3]oxazin-3-yl)pyridin-2-yl)cyclohexanecarboxamide] | < 0.003 µM | 0.12 µM | 0.69 µM | 0.256 µM |
| CC(=O)N[C@@H]1CCC[C@H](C(=O)Nc2cc(-c3cnn4c3CCC4)c(Cl)cn2)C1 [Example 10, (1S,3R)-3-acetamido-N-(5-chloro-4-(5,6-dihydro-4H-pyrrolo[1,2-b]pyrazol-3-yl)pyridin-2-yl)cyclohexanecarboxamide] | 0.005 µM | 0.217 µM | 0.55 µM | 0.333 µM |
| CC(=O)N[C@@H]1CCC[C@H](C(=O)Nc2cc(-c3cnn4c3COCC4)c(Cl)cn2)C1 [Example 11, (1S,3R)-3-acetamido-N-(5-chloro-4-(6,7-dihydro-4H-pyrazolo[5,1-c][1,4]oxazin-3-yl)pyridin-2-yl)cyclohexanecarboxamide] | 0.011 µM | 1.2 µM | 2.7 µM | 1.93 µM |
| CC(=O)N[C@@H]1CCC[C@H](C(=O)Nc2cc(-c3cnc4n3CCC4)c(Cl)cn2)C1 [Example 12, (1S,3R)-3-acetamido-N-(5-chloro-4-(6,7-dihydro-5H-pyrrolo[1,2-a]imidazol-3-yl)pyridin-2-yl)cyclohexanecarboxamide] | 0.005 µM | 0.35 µM | 0.83 µM | 0.701 µM |
| CC(=O)N[C@@H]1CCC[C@H](C(=O)Nc2cc(-c3cnn4c3CN(C)CC4)c(Cl)cn2)C1 [Example 13, (1S,3R)-3-acetamido-N-(5-chloro-4-(5-methyl-4,5,6,7-tetrahydropyrazolo[1,5-a]pyrazin-3-yl)pyridin-2-yl)cyclohexanecarboxamide] | 0.006 µM | 0.24 µM | 0.82 µM | 0.914 µM |
| CC(=O)N[C@@H]1CCC[C@H](C(=O)Nc2cc(-c3cnn4c3NCCC4)c(Cl)cn2)C1 [Example 15, (1S,3R)-3-acetamido-N-(5-chloro-4-(4,5,6,7-tetrahydropyrazolo[1,5-a]pyrimidin-3-yl)pyridin-2-yl)cyclohexanecarboxamide] | 0.005 µM | 0.35 µM | 1.3 µM | 0.669 µM |
| CC(=O)N[C@@H]1CCC[C@H](C(=O)Nc2cc(-c3cnn4c3CC(C)(C)C4)ccn2)C1 [Example 16, (1S,3R)-3-acetamido-N-(4-(5,5-dimethyl-5,6-dihydro-4H-pyrrolo[1,2-b]pyrazol-3-yl)pyridin-2-yl)cyclohexanecarboxamide] | < 0.003 µM | 0.028 µM | 0.15 µM | 0.1 µM |
| CC1(C)Cc2c(-c3ccnc(NC(=O)[C@H]4CCC[C@@H](NC(=O)C5(O)CC5)C4)c3)cnn2C1 [Example 17, (1S,3R)—N-(4-(5,5-dimethyl-5,6-dihydro-4H-pyrrolo[1,2-b]pyrazol-3-yl)pyridin-2-yl)-3-(1-hydroxycyclopropanecarboxamido)cyclohexanecarboxamide] | 0.004 µM | 0.036 µM | 0.207 µM | 0.14 µM |
| CC1(C)Cc2c(-c3ccnc(NC(=O)[C@H]4CCC[C@@H](NC(=O)C5COC5)C4)c3)cnn2C1 [Example 18, N-((1R,3S)-3-((4-(5,5-dimethyl-5,6-dihydro-4H-pyrrolo[1,2-b]pyrazol-3-yl)pyridin-2-yl)carbamoyl)cyclohexyl)oxetane-3-carboxamide] | < 0.003 µM | 0.014 µM | 0.122 µM | 0.071 µM |
| CC1(C)Cc2c(-c3cc(NC(=O)[C@H]4CCC[C@@H](NC(=O)C5COC5)C4)ncc3Cl)cnn2C1 [Example 19, N-((1R,3S)-3-((5-chloro-4-(5,5-dimethyl-5,6-dihydro-4H-pyrrolo[1,2-b]pyrazol-3-yl)pyridin-2-yl)carbamoyl)cyclohexyl)oxetane-3-carboxamide] | < 0.003 µM | < 0.003 µM | 0.013 µM | 0.011 µM |
